The source of these data is ChEMBL document CHEMBL3217500, “Identification of a novel nanomolar inhibitor of hIcmt via a carboxylate replacement approach” (Medchemcomm, 2012).

One may read the inhibition as the change of the read-out against control, counted positive when it falls. One may read the IC50 as the midpoint of a concentration-inhibition curve. A low value points to higher potency.

The source made the active and inactive calls. The rule behind the calls is not given here.

The target in assay [1] is T1, Protein-S-isoprenylcysteine O-methyltransferase (Homo sapiens, UniProt O60725). Nature of the assay: Activity at human isoprenylcysteine carboxyl methyltransferase using [14C]SAM by vapor diffusion assay relative to AFC.
For assay [2], the target named is T1, Protein-S-isoprenylcysteine O-methyltransferase. Nature of the assay: Inhibition of human isoprenylcysteine carboxyl methyltransferase using [14C]SAM and N-acetyl-S-farnesyl-L-cysteine as substrate at 10 uM after 30 mins by vapor diffusion assay.
Assay [3] shares this target. Nature of the assay: Inhibition of isoprenylcysteine carboxyl methyltransferase in human Jurkat cells assessed as mislocalization of GFP-K-Ras at 10 uM after 24 hrs by fluorescence microscopic analysis. The assay is classed as cell-based.
Assay [4] has the same target. Description: Un-competitive inhibition of human isoprenylcysteine carboxyl methyltransferase using [14C]SAM and N-acetyl-S-farnesyl-L-cysteine as substrate by Lineweaver-Burk plot analysis.
For assay [5] the target is unchanged. Nature of the assay: Inhibition of human isoprenylcysteine carboxyl methyltransferase using [14C]SAM and N-acetyl-S-farnesyl-L-cysteine as substrate after 30 mins by vapor diffusion assay.
The target is the same in assay [6]. Nature of the assay: Competitive inhibition of human isoprenylcysteine carboxyl methyltransferase using [14C]SAM and N-acetyl-S-farnesyl-L-cysteine as substrate by Lineweaver-Burk plot analysis.
Assay [7] shares this target. Description: Inhibition of isoprenylcysteine carboxyl methyltransferase in human Jurkat cells assessed as mislocalization of GFP-K-Ras at 45 uM after 24 hrs by fluorescence microscopic analysis. The assay is classed as cell-based.

T1 sequence (O60725 whole entry, the tested form may be a part): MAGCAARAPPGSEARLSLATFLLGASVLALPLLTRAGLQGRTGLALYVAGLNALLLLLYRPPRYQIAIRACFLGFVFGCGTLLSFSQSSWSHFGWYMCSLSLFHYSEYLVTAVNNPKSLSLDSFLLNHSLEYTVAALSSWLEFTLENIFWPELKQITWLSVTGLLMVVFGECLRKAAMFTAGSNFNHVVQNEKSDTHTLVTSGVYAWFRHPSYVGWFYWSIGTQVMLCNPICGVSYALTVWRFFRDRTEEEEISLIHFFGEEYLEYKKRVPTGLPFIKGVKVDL

`CC(C)=CCC/C(C)=C/CC/C(C)=C/CSC(C)(C)C(=O)O`: the outcome in assay [1] was inactive. In assay [2], this compound showed an inhibition of 27%.
In the same order, the values of `CCOP(=O)(CCSC/C=C(\C)CC/C=C(\C)CCC=C(C)C)OCC` are “inactive” and 36%.
In the same order, the values of `CC(C)=CCC/C(C)=C/CC/C(C)=C/CSCCCO` are “inactive” and 34%.
`CC(C)=CCC/C(C)=C/CC/C(C)=C/CSc1ccccc1C(=O)O` gave an inhibition in assay [2] of 40%.
Take `CC(C)=CCC/C(C)=C/CC/C(C)=C/CCSCCO`: the result in assay [1] was inactive. The same compound displayed an inhibition in assay [2] of 20%.
In the same order, the values of `CC(C)=CCC/C(C)=C/CC/C(C)=C/CSCC(=O)NO` are “inactive” and 36%.
For `CC(C)=CCC/C(C)=C/CC/C(C)=C/CSCC(N)=O` the same measures were “inactive” and 47%.
With `CC(C)=CCC/C(C)=C/CC/C(C)=C/CSCC1OCCO1`, in assay [1], the result was inactive. In assay [2], this compound registered an inhibition of 9%.
In the same order, the values of `CC(C)=CCC/C(C)=C/CC/C(C)=C/CSCC=O` are “inactive” and 13%.
For `CC(C)=CCC/C(C)=C/CC/C(C)=C/CSCC(C)O` (configuration not stated) the same measures were “inactive” and 72%.
In the same order, the values of `CC(C)=CCC/C(C)=C/CC/C(C)=C/CSCCN` are “inactive” and 6%.
On to `COC(=O)CSC/C=C(\C)CC/C=C(\C)CC/C=C(\C)CCC=C(C)C`, for which, in assay [1], the result was inactive. The inhibition in assay [2] is 12%.
For the compound `CC(=O)SC/C=C(\C)CC/C=C(\C)CCC=C(C)C`, the result in assay [1] was inactive. The same compound returned an inhibition in assay [2] of 3%.
As for `CC(C)=CCC/C(C)=C/CC/C(C)=C/CSCCO`, the inhibition result in assay [3] is “Active”. The compound further registered a Kiuc in assay [4] of 0.43 µM. Also, in assay [1], the result was inactive. Moreover, the IC50 in assay [5] was found to be 860 nM. The inhibition in assay [2] amounted to 93%. The compound further yielded a Kic in assay [6] of 0.44 µM.
In the case of `CC(C)=CCC/C(C)=C/CC/C(C)=C/CSC(C)(C)CO`, the result in assay [1] was inactive. The inhibition in assay [2] was determined as 32%.
As for `CCCSC/C=C(\C)CC/C=C(\C)CCC=C(C)C`, the outcome in assay [1] was inactive. The compound also yielded an inhibition in assay [2] of 0%.
In the same order, the values of `CC(C)=CCC/C(C)=C/CC/C(C)=C/CSCC(=O)O` are “inactive” and 50%.
For `CC(C)=CCC/C(C)=C/CSCCO` the same measures were “inactive” and 0%.
As for `CC(C)=CCC/C(C)=C/CC/C(C)=C/CSCCN=[N+]=[N-]`, the outcome in assay [1] was inactive. The inhibition in assay [2] is 11%.
For `COC(=O)C(C)(C)SC/C=C(\C)CC/C=C(\C)CCC=C(C)C` the same measures were “inactive” and 8%.
Turning to `COC(=O)C(F)(F)SC/C=C(\C)CC/C=C(\C)CCC=C(C)C`, the result in assay [1] was inactive. Moreover, in assay [2], the inhibition is 68%.
On to `COC(=O)CSCC/C=C(\C)CC/C=C(\C)CCC=C(C)C`, for which the result in assay [1] was inactive. The inhibition in assay [2] is 12%.
In the same order, the values of `CC(C)=CCC/C(C)=C/CC/C(C)=C/CSCCS` are “inactive” and 0%.
For `COC(=O)CCSC/C=C(\C)CC/C=C(\C)CCC=C(C)C` the same measures were “inactive” and 14%.
In the same order, the values of `CC(C)=CCC/C(C)=C/CC/C(C)=C/CSCC(O)CO` (configuration not stated) are “inactive” and 75%.
As to `COCCSC/C=C(\C)CC/C=C(\C)CCC=C(C)C`, the outcome in assay [1] was inactive. The same compound had an inhibition in assay [2] of 0%.
For `CCOP(=O)(CCCSC/C=C(\C)CC/C=C(\C)CCC=C(C)C)OCC` the same measures were “inactive” and 20%.
For `CC(C)=CCC/C(C)=C/CC/C(C)=C/CSC(C)C`, in assay [1], the result was inactive. The same compound came in with an inhibition in assay [2] of 0%.
As to `COC(=O)CSC/C=C(\C)CC/C=C(\C)CCC=C(C)C`, the outcome in assay [1] was inactive. Moreover, in assay [2], the inhibition was 28%.
Take `COC(=O)CSC/C=C(\C)CCC=C(C)C`: the outcome in assay [1] was inactive. In addition, the inhibition in assay [2] worked out at 0%.
For `CC(=O)OCCSC/C=C(\C)CC/C=C(\C)CCC=C(C)C`, the outcome in assay [1] was inactive. Further, the inhibition in assay [2] amounted to 27%.
Consider `CC(C)=CCC/C(C)=C/CC/C(C)=C/CSC(F)(F)CO`, for which the result in assay [1] was inactive. In assay [2], this compound displayed an inhibition of 44%.
For `CC(C)=CCC/C(C)=C/CC/C(C)=C/CSCCC(=O)NO` the same measures were “inactive” and 22%.
For `CCOC(=O)NCCSC/C=C(\C)CC/C=C(\C)CCC=C(C)C` the same measures were “inactive” and 10%.
`CCC(C)(C)C(=O)O[C@H]1C[C@@H](C)C=C2C=C[C@H](C)[C@H](CC[C@@H]3C[C@@H](O)CC(=O)O3)[C@H]21`: in assay [7], the inhibition result is “Active”.
As to `CC(C)=CCC/C(C)=C/CSCC(=O)O`, the outcome in assay [1] was inactive. Moreover, the inhibition in assay [2] is 0%.
In the same order, the values of `CC(=O)CSC/C=C(\C)CC/C=C(\C)CCC=C(C)C` are “inactive” and 25%.
With `CC(C)=CCC/C(C)=C/CC/C(C)=C/CC/C(C)=C/CSCCO`, in assay [1], the result was inactive. For the same compound, the inhibition in assay [2] amounted to 40%.
In the case of `CC(C)=CCC/C(C)=C/CC/C(C)=C/CSCCC(=O)O`, the Activity in assay [1] came to 50%. This compound also returned an inhibition in assay [2] of 28%.
With `CC(C)=CCC/C(C)=C/CC/C(C)=C/CSCCCBr`, the result in assay [1] was inactive. In assay [2], this compound came in with an inhibition of 9%.
